The results in this text go back to ChEMBL document CHEMBL1201862, “PubChem BioAssay data set” (2004).

Among the test systems are A549; PC-3; T47D; SK-MEL-28; SR; HCT-15; Malme-3M; LOX IMVI; SNB-19; KM12; UO-31; HT-29; A498; CAKI-1; DU-145; MDA-MB-231; NCI/ADR-RES; TK-10; SK-OV-3; SNB-75.
Holding throughout (assay): growth of human tumour cells (NCI), 48 h

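Tested at 5 concentrations; 48 h exposure; 96-well plates; endpoints linearly interpolated, else capped at highest concentration. Here, GI50 denotes the concentration required for 50% inhibition of growth.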 Activity calls are given as the source filed them. No stated cut-off is given here; in the data, active = GI50 up to about 1.1 µM and inactive = higher. Some results are limits rather than exact numbers.

For `CC(CCC(=O)O)(c1ccc(O)cc1)c1ccc(O)cc1`, the GI50 is > 100 µM (inactive) in the assay on A549; > 100 µM (inactive) in the assay with PC-3; > 100 µM (inactive) in the assay on T47D; > 100 µM (inactive) in the assay on SK-MEL-28; > 100 µM (inactive) in the assay on SR; more than 100 µM in the assay on HCT-15. The GI50 in the assay on Malme-3M, with LOX IMVI, in the assay with SNB-19, with KM12, with UO-31 and with HT-29 was > 100 µM (inactive) each time. The GI50 in the assay on A498, in the assay on CAKI-1, with DU-145, with MDA-MB-231, in the assay on NCI/ADR-RES and in the assay on TK-10 was > 100 µM (inactive) throughout.

Regarding `OCCCCn1cc(Cn2ncc3c(O)ncnc32)nn1`, the GI50 is > 100 µM (inactive) with A549; > 100 µM (inactive) with PC-3; > 100 µM (inactive) in the assay with T47D; > 100 µM (inactive) in the assay on SK-MEL-28; > 100 µM (inactive) in the assay on SR; more than 100 µM in the assay on HCT-15. In addition, the GI50 with Malme-3M, in the assay on LOX IMVI, in the assay with SNB-19, in the assay with KM12, in the assay with UO-31 and with HT-29 was > 100 µM (inactive) each time. Further, the GI50 with A498, in the assay on CAKI-1, with DU-145, with SK-OV-3, in the assay with MDA-MB-231 and with NCI/ADR-RES was > 100 µM (inactive) each time. Besides, the GI50 in the assay with TK-10 is > 100 µM (inactive).

For `COCc1nc(N)nc(N2N=C(C)CC2(C)C)n1`, the GI50 with A549 is > 100 µM (inactive); in the assay with PC-3, > 100 µM (inactive); in the assay with T47D it was > 100 µM (inactive); in the assay on SK-MEL-28, > 100 µM (inactive); in the assay on SR, > 100 µM (inactive); with HCT-15, more than 100 µM. Also, the GI50 with LOX IMVI, in the assay with SNB-19, in the assay on KM12, in the assay on UO-31, in the assay on HT-29 and in the assay with SNB-75 was > 100 µM (inactive) each time. Further, the GI50 in the assay with A498, with CAKI-1, with DU-145, in the assay with SK-OV-3, in the assay with MDA-MB-231 and in the assay on NCI/ADR-RES was > 100 µM (inactive) in each case. The GI50 with TK-10 is > 100 µM (inactive).

`O=c1cc(-c2ccccc2)c2ccc(O)c(CN(CCCl)CCCl)c2o1`: the GI50 in the assay with A549 was 16.1 µM (inactive); in the assay with PC-3, 17.8 µM (inactive); with T47D it was 23.4 µM (inactive); with SK-MEL-28, 18.8 µM (inactive); with SR, 11.1 µM (inactive); in the assay with HCT-15, 22.1 µM. Further, the GI50 with Malme-3M was 21 µM (inactive); with LOX IMVI, 8.26 µM (inactive); in the assay on SNB-19, 18.5 µM (inactive); in the assay on KM12, 17.9 µM (inactive); with UO-31 it was 14.4 µM (inactive); with HT-29, 10.3 µM (inactive). Also, the GI50 in the assay with SNB-75 was 15.7 µM (inactive); with A498, 19.1 µM (inactive); with CAKI-1, 15.5 µM (inactive); in the assay with DU-145, 33.6 µM (inactive); in the assay on MDA-MB-231 it was 15.7 µM (inactive); with NCI/ADR-RES, 32.3 µM (inactive).

As for `CC1=NN(c2nc(N)nc(-c3cc4ccccc4oc3=N)n2)C(C)(C)C1`, the GI50 in the assay with A549 is 19.5 µM (inactive); with PC-3, 17.1 µM (inactive); in the assay on T47D it was 16.1 µM (inactive); with SK-MEL-28, 16.5 µM (inactive); in the assay with SR, 19.6 µM (inactive); in the assay on HCT-15 it was 16.1 µM. The GI50 in the assay with Malme-3M is 17.5 µM (inactive); in the assay on SNB-19 it was 32.7 µM (inactive); in the assay on KM12, 17.7 µM (inactive); with UO-31, 19.1 µM (inactive); in the assay with HT-29, 19.7 µM (inactive); in the assay with A498, 27.7 µM (inactive). Moreover, the GI50 in the assay with CAKI-1 was 17.3 µM (inactive); in the assay on DU-145, 20.9 µM (inactive); in the assay with SK-OV-3, 18.8 µM (inactive); with MDA-MB-231, 20.1 µM (inactive); with NCI/ADR-RES it was 22 µM (inactive); in the assay on TK-10, 23.4 µM (inactive).

In the case of `O=C1CC(=O)NC(NN2C(=O)CSC2C(=O)c2ccco2)=N1` (centres undefined), the GI50 in the assay with A549 is > 100 µM (inactive); with PC-3, > 100 µM (inactive); in the assay on T47D it was > 100 µM (inactive); with SK-MEL-28, > 100 µM (inactive); in the assay on SR, > 100 µM (inactive); with HCT-15, more than 100 µM. For the same compound, the GI50 was > 100 µM (inactive) in the assay with Malme-3M; 3.05 µM (inactive) in the assay with KM12; > 100 µM (inactive) with UO-31; > 100 µM (inactive) in the assay on HT-29; 12.2 µM (inactive) in the assay with SNB-75; > 100 µM (inactive) in the assay on A498. For the same compound, the GI50 with CAKI-1, in the assay with DU-145, with SK-OV-3, in the assay with MDA-MB-231, in the assay on NCI/ADR-RES and with TK-10 was > 100 µM (inactive) in each case.

`CC1=NN(C(=O)c2ccccc2O)C(c2ccccc2Cl)C1C(=O)Nc1ccccc1` (centres undefined): the GI50 with A549 was < 0.0158 µM (active); in the assay on PC-3, 1.75 µM (inactive); in the assay on T47D it was 0.0435 µM (active); with SK-MEL-28 it was 40.4 µM (inactive); with SR it was < 0.0322 µM (active); in the assay with HCT-15 it was 0.0303 µM. Further, the GI50 with Malme-3M is 0.0565 µM (active); with LOX IMVI, 0.0728 µM (active); with SNB-19, 0.0306 µM (active); with KM12 it was 0.107 µM (active); in the assay with UO-31, < 0.0226 µM (active); in the assay with HT-29, 2.96 µM (inactive). Besides, the GI50 in the assay with A498 was < 0.01 µM (active); in the assay with CAKI-1 it was 0.159 µM (active); with DU-145, < 0.0291 µM (active); in the assay on SK-OV-3, 10.9 µM (inactive); in the assay with MDA-MB-231 it was 0.647 µM (active); in the assay with NCI/ADR-RES, 0.0458 µM (active). In the assay on TK-10, the GI50 was 3.1 µM (inactive).

`CC(C)(C)NCC(O)c1ccc(O)c(CO)n1` (centres undefined): the GI50 in the assay on A549 is > 100 µM (inactive); with PC-3, > 100 µM (inactive); in the assay on T47D it was > 100 µM (inactive); in the assay with SK-MEL-28, > 100 µM (inactive); in the assay with SR it was > 100 µM (inactive); with HCT-15, more than 100 µM. Further, the GI50 with LOX IMVI, with SNB-19, in the assay on KM12, in the assay on UO-31, in the assay with HT-29 and in the assay on SNB-75 was > 100 µM (inactive) in each case. The GI50 in the assay with A498, with CAKI-1, with DU-145, in the assay with SK-OV-3, in the assay on MDA-MB-231 and in the assay on NCI/ADR-RES was > 100 µM (inactive) each time. Also, in the assay on TK-10, the GI50 is > 100 µM (inactive).

For `N/C(=N\O)N/N=C/c1ccc2c(c1)OCO2`, the GI50 with A549 is 14.7 µM (inactive); in the assay on PC-3 it was 26.2 µM (inactive); in the assay on T47D it was 46 µM (inactive); with SK-MEL-28, 46 µM (inactive); with SR, 7.87 µM (inactive); with HCT-15 it was 22 µM. For the same compound, the GI50 in the assay on Malme-3M was 17.5 µM (inactive); in the assay on LOX IMVI, 17.4 µM (inactive); in the assay with SNB-19 it was 62.7 µM (inactive); with KM12 it was 7.55 µM (inactive); with HT-29, 36.1 µM (inactive); with A498, 21 µM (inactive). The GI50 in the assay on CAKI-1 is 30.3 µM (inactive); with DU-145, 7.16 µM (inactive); with SK-OV-3, 47.4 µM (inactive); in the assay on MDA-MB-231, 38.5 µM (inactive); with NCI/ADR-RES, 6.75 µM (inactive); in the assay on TK-10, 55 µM (inactive).

With `Cc1ccc(C2SCC(=O)N2NC(=O)c2ccncc2)s1` (centres undefined), the GI50 in the assay on A549 was > 100 µM (inactive); in the assay on PC-3, > 100 µM (inactive); in the assay with T47D, > 100 µM (inactive); in the assay on SK-MEL-28, > 100 µM (inactive); in the assay on SR, > 100 µM (inactive); with HCT-15 it was more than 100 µM. The GI50 with Malme-3M, with LOX IMVI, in the assay with SNB-19, in the assay with KM12, with UO-31 and in the assay on HT-29 was > 100 µM (inactive) each time. The GI50 in the assay on A498, in the assay with CAKI-1, with DU-145, in the assay on SK-OV-3, in the assay with MDA-MB-231 and in the assay with NCI/ADR-RES was > 100 µM (inactive) in each case. Also, the GI50 with TK-10 was > 100 µM (inactive).

As for `O=c1c2ccc(Cl)cc2oc2c(CSc3ccccc3)cccc12`, the GI50 in the assay on A549 is > 32.4 µM (inactive); in the assay with PC-3, > 39.5 µM (inactive); in the assay with T47D, 61.7 µM (inactive); in the assay on SK-MEL-28, > 53.1 µM (inactive); with SR it was 9.64 µM (inactive); in the assay with HCT-15 it was 28.4 µM. For the same compound, the GI50 with Malme-3M is 14.2 µM (inactive); with LOX IMVI, 9.57 µM (inactive); in the assay on SNB-19, > 45.5 µM (inactive); in the assay on KM12, 21.6 µM (inactive); in the assay with HT-29, 95.9 µM (inactive); in the assay with SNB-75, > 33.2 µM (inactive). For the same compound, the GI50 was 25.7 µM (inactive) in the assay on A498; > 38.5 µM (inactive) in the assay on CAKI-1; 70.5 µM (inactive) in the assay on DU-145; > 55 µM (inactive) in the assay on SK-OV-3; > 63 µM (inactive) in the assay on MDA-MB-231; > 50.2 µM (inactive) with NCI/ADR-RES. Moreover, the GI50 in the assay with TK-10 was > 55.3 µM (inactive).
